Columns and labels:
Format in all cases: binding
[1] = tested on: human monoclonal antibody CR57
[2] = tested on: human monoclonal antibody CRJB
[3] = tested on: human monoclonal antibody CR57; remark: listed apart in the source
[4] = tested on: human monoclonal antibody CRJA
[5] = tested on: human monoclonal antibody CRJA; remark: listed apart in the source
[6] = tested on: human monoclonal antibody CRJB; remark: listed apart in the source

Row | Sequence | Binding of CR57 to linear peptide (PEPSCAN-ELISA signal) [1] | Binding of CRJB to linear peptide (PEPSCAN-ELISA signal) [2] | Binding of CR57 (10 μg/ml) to looped/cyclic peptide (PEPSCAN-ELISA) [3] | Binding of CRJA (10 μg/ml) to looped/cyclic peptide (PEPSCAN-ELISA) [4] | Binding of CRJA to linear peptide (PEPSCAN-ELISA signal) [5] | Binding of CRJB (10 μg/ml) to looped/cyclic peptide (PEPSCAN-ELISA) [6] | Binding of CR57 (10 μg/ml) to looped/cyclic peptide (PEPSCAN-ELISA signal) [3] | Binding of CRJA (10 μg/ml) to looped/cyclic peptide (PEPSCAN-ELISA signal) [4] | Binding of CRJB (10 μg/ml) to looped/cyclic peptide (PEPSCAN-ELISA signal) [6] | Binding of human monoclonal antibody CR57 to linear peptide (PEPSCAN-ELISA signal) [1] | Binding of human monoclonal antibody CRJB to linear peptide (PEPSCAN-ELISA signal) [2] | Binding of CR57 to looped/cyclic peptide (PEPSCAN-ELISA signal) [3] | Binding of CRJA to looped/cyclic peptide (PEPSCAN-ELISA signal) [4] | Binding of human monoclonal antibody CRJA to linear peptide (PEPSCAN-ELISA signal) [5] | Binding of CRJB to looped/cyclic peptide (PEPSCAN-ELISA signal) [6]
1 | GVLGLRLMDGTWVAM | 89 | 148 | 118 | 104 | 107 | 83 |  |  |  |  |  |  |  |  | 
2 | VEDEGCTNLSGFSYM | 74 | 103 |  |  | 82 |  | 83 | 86 | 78 |  |  |  |  |  | 
3 | QHMELLESSVIPLVH | 98 | 146 | 132 | 111 | 87 | 97 |  |  |  |  |  |  |  |  | 
4 | TPDACRAAYNWKMAG | 92 | 132 |  |  | 132 |  | 125 | 111 | 90 |  |  |  |  |  | 
5 | MEADAHYKSVRTWNE | 62 | 129 | 69 | 68 | 78 | 86 |  |  |  |  |  |  |  |  | 
6 | IMTTKSVSFRRLSHL | 43 | 101 | 74 | 63 | 85 | 42 |  |  |  |  |  |  |  |  | 
7 | SKGCLRVGGRCHPHV | 72 | 121 | 79 | 71 | 87 | 87 |  |  |  |  |  |  |  |  | 
8 | SVIPLVHPLADPSTV | 72 | 137 | 71 | 75 | 64 | 106 |  |  |  |  |  |  |  |  | 
9 | TNFVGYVTTTFKRKH | 71 | 125 |  |  | 96 |  | 79 | 96 | 99 |  |  |  |  |  | 
10 | AIKMNGFTCTGVVTE | 47 | 103 |  |  | 93 |  | 69 | 71 | 79 |  |  |  |  |  | 
11 | RKREECLDALESIMT | 73 | 110 | 132 | 129 | 96 | 96 |  |  |  |  |  |  |  |  | 
12 | REECLDALESIMTTK | 94 | 110 | 89 | 92 | 94 | 79 |  |  |  |  |  |  |  |  | 
13 | ENPRLGMSCDIFTNS | 71 | 118 |  |  | 101 |  | 100 | 113 | 88 |  |  |  |  |  | 
14 | DPSTVFKDGDEAEDF |  |  |  |  |  |  |  |  |  | 98 | 147 | 134 | 110 | 132 | 110

Source: US20060263802A1 (priority 2003, published 2006)
